Where two headings read alike, the source gives them in different places. Values belong to the compound of their own block, whether it stands above or below them.
Tests used:
[1] = single or multiple oral doses of 1250 μg vitamin D, or a dose of 900 μg 25(OH)D3; cited from earlier work
[2] = cited from earlier work
[3] = cited from earlier work; remark: listed apart in the source
[4] = Double-blind randomized crossover pharmacokinetic study, single oral 900 μg vitamin D3 or 25(OH)D3; type: in vivo, human; details: for Cmax / Tmax / concentration at 14 days / half-life / AUC: both sexes, human, serum, po, single oral 900 μg, mean ± SEM; for Cmax / Tmax / half-life / AUC: 900 ug; for concentration at 14 days: 900 μg, read-out: Ctrough (trough level at day 14); for half-life: read-out: T1/2 (elimination half-life) (converted)
Protocol: The conclusions as presented herein are based on the following experiments: In a double-blinded cross-over study single high dosages (900 μg total in two soft gel capsules containing 450 μg) of either vitamin D3 or 25(OH)D3 were administered to vitamin D-deficient volunteers including healthy controls as well as subjects with a history of malabsorption. At the outset, the BMI was determined. Blood samples were then taken at baseline and at 2, 4, 6, 8, and 12 hours as well as 1, 2, 3, 7, and 14 days after administration (FIG. 2). All the samples were analyzed for their contents in vitamin D3 per se as well as 25(OH)D3. […] In addition, peak levels were more rapidly reached with 25(OH)D3 than with vitamin D3 (see FIG. 5). The immediate increase in serum 25(OH)D3 compared to the delayed increase observed with vitamin D3 supports the concept that 25(OH)D3 is being rapidly absorbed from the small intestine into the portal circulation, whereas vitamin D3 first needs to be incorporated into the chylomicrons which are absorbed into the lymphatic system.
The pharmacokinetic parameters of orally administered 25(OH)D3 and vitamin D3 (both provided for formulation in form of visually identical soft-gel pills) were studied based on the corresponding serum concentration-time curves in healthy adults and adults with a history of intestinal malabsorption (see FIG. 2). Cinical safety has been evaluated by monitoring serum calcium, phosphorus, parathyroid hormone (PTH) and 25(OH)D levels at the beginning and end of the study. Furthermore, the distribution of supplemented 25(OH)D3 (or 25(OH)D2) into adipose tissue and the role it is playing there was also studied.
Serum levels of calcium, phosphorus, albumin, creatinine and intact parathyroid hormone (iPTH) were determined at baseline and at the end of each 14-day pharmacokinetic study (see Table 4). The pharmacokinetic parameters have been determined by evaluating the serum concentration-time curves in patients with malabsorption syndrome and healthy controls (Tables 5 and 6).
The primary outcomes of the study are the serum pharmacokinetic parameters of 25(OH)D3 and vitamin D3 after a single oral administration of 900 μg of each in a double-blind randomized crossover study.
Adult patients (18 years and older) with a history of intestinal malabsorption (n=10) and healthy adult volunteers (n=10); (of both sexes and all ethnicities) has been recruited in this randomized double-blinded crossover study. The BMI has been determined and recorded at baseline. All subjects have been prescreened for 25(OH)D levels to include subjects with 25(OH)D<30 ng/mL. The subjects have been randomized to receive two oral doses of 450 μg taken simultaneously (total 900 μg) of either vitamin D3 or 25(OH)D3. Blood samples were taken at baseline and at 2, 4, 6, 8, 12 hours and days 1, 2, 3, 7 and 14. There was a two weeks washout period before the subject received in a double blinded manner, two oral doses of 450 μg taken simultaneously (total 900 μg) of either 25(OH)D3 or vitamin D3 (depending on which one they took in the randomization) any time after the 2 week washout. Blood samples were taken at baseline and at 2, 4, 6, 8, 12 hours and days 1, 2, 3, 7 and 14 days. Serum levels of calcium, phosphorus, albumin, creatinine, and intact parathyroid hormone (iPTH) were obtained at baseline and at day 14 for each arm (or within a reasonable time if the study participant was unable to come on the exact day).
The individuals participating in the study had, after signing a consent form, been randomized by a computer randomization chart in a blinded manner to receive two oral doses of 450 μg taken simultaneously (total 900 μg) of either vitamin D3 or 25(OH)D3. Blood samples have been taken at baseline and at 2, 4, 6, 8, 12 hours and days 1, 2, 3, 7 and 14. […]

[5] = vitamin D deficient postmenopausal women; single p.o. bolus of 140 μg of each substance; cited from earlier work
[6] = cited from earlier work; remark: listed apart in the source
[7] = healthy participants with higher BMI (N = 5)
[8] = healthy participants with lower BMI (N = 5)
[9] = patients with fat malabsorption (N = 6)

time at which the peak of the serum concentration is reached ([4]; FIG. 5, oral 900 μg): ~8 h
bioavailability in subjects with a history of vitamin D/fat malabsorption ([4]; after administration of the respective product, FIGS. 3a and b): almost normal
Cmax ([4]; healthy participants (N = 10)): 23.1 ± 4.6 ng/mL
Tmax ([4]; healthy participants (N = 10)): 11.2 ± 4.1 h
concentration at 14 days ([4]; healthy participants (N = 10)): 6.1 ± 1.3 ng/mL
half-life ([4]; healthy participants (N = 10)): 60.6 ± 7.9 h
AUC ([4]; healthy participants (N = 10), serum level of the administered substance): 3130 ± 545 ng·h/mL
AUC [4, 7]: 2620 ± 855 ng·h/mL
Cmax [4, 7]: 21.4 ± 8 ng/mL
Tmax [4, 7]: 15.2 ± 8.2 h
concentration at 14 days [4, 7]: 4.6 ± 1.4 ng/mL
half-life [4, 7]: 55 ± 10.7 h
AUC [4, 8]: 3630 ± 690 ng·h/mL
Cmax [4, 8]: 24.8 ± 5.5 ng/mL
Tmax [4, 8]: 7.2 ± 0.5 h
concentration at 14 days [4, 8]: 7.6 ± 2.1 ng/mL
half-life [4, 8]: 66.2 ± 12.3 h
Cmax [4, 9]: 23.2 ± 6.8 ng/mL
Tmax [4, 9]: 5.3 ± 0.7 h
concentration at 14 days [4, 9]: 6.7 ± 1.5 ng/mL
half-life [4, 9]: 65.7 ± 29.9 h
AUC ([4]; patients with fat malabsorption (N = 6), serum level of the administered substance): 2670 ± 735 ng·h/mL
Compound: C=C1CC[C@H](O)C/C1=C/C=C1\CCC[C@]2(C)[C@@H]([C@H](C)CCCC(C)(C)O)CC[C@@H]12 [25-hydroxyvitamin D3]
reports of toxicity [1]: toxicity has never been reported
increase of 25(OH)D by 24 hours ([2]; after bolus intravenous dose): 40 ng/mL
toxicity ([2]; bolus intravenous 448 μg or 900 μg slow release): No toxicity was observed
increase of peak concentration of 25(OH)D above baseline ([2]; bolus intravenous dose of 448 μg): approximately 110 ng/mL
toxicity in pharmacokinetic study ([2]; oral single dose of 900 μg): did not show any untoward toxicity
power of oral calcifediol relative to oral cholecalciferol (vitamin D3) [3]: three- to five-time more powerful
Cmax increase over baseline of 25(OH)D3 [5]: 24.7 ng/mL

Compound: C=C1CC[C@H](O)C/C1=C/C=C1\CCC[C@]2(C)[C@@H]([C@H](C)/C=C/[C@H](C)C(C)C)CC[C@@H]12 [vitamin D2, ergocalciferol]
serum vitamin D concentration reached ([6]; five of the seven patients with intestinal fat malabsorption, oral 50,000 IU): ≤ 10 ng/mL

Compound: vitamin D
peak serum vitamin D concentration ([6]; single oral dose of 1.25 mg (50'000 IU), baseline less than 5 ng/mL): over 50 ng/mL
time of fall of serum vitamin D to baseline levels ([6]; single oral dose of 1.25 mg): ≤ 3 days
time of peak serum vitamin D concentration ([6]; single oral dose of 1.25 mg): ≤ 12 h

Source: patent US20230248744A1, “25-HYDROXYVITAMIN D2 AND/OR D3 FOR USE IN OBESITY” (CARBOGEN AMCIS B.V., priority 2020, published 2023)
